For 38 compounds, IC50 and inhibition results are on record in ChEMBL document CHEMBL4831528, “Discovery of Novel Pterostilbene-Based Derivatives as Potent and Orally Active NLRP3 Inflammasome Inhibitors with Inflammatory Activity for Colitis” (J Med Chem, 2021).

Bounds are passed on as bounds.

Assay [1] has as its system L02. Put plainly: Cytotoxicity against human L-02 cells incubated for 24 hrs by MTT assay. The class given is cell-based. The following applies: L02, 24 h. (Tetrazolium dyes change colour on reduction, which living cells bring about.)
The target of assay [2] is NACHT, LRR and PYD domains-containing protein 3 (Mus musculus) (UniProt Q8R4B8). In words: Inhibition of NLRP3 inflammasome activation in LPS-stimulated mouse J774A.1 cells assessed as inhibition of cell pyrolysis at 10 uM incubated for 1 hr followed by ATP addition and measured after 30 mins by Hoechst 33342/propidium iodide staining based high content screening method relative to control. The following applies: J774.A1, time 1.5 hrs.

Assay [3] shares this target. Put plainly: Inhibition of NLRP3 inflammasome activation in LPS-stimulated mouse J774A.1 cells assessed as inhibition of cell pyrolysis at 20 uM incubated for 1 hr followed by ATP addition and measured after 30 mins by Hoechst 33342/propidium iodide staining based high content screening method relative to control. The following applies: J774.A1, time 1.5 hrs.

Chain of NACHT, LRR and PYD domains-containing protein 3 (Mus musculus) (Q8R4B8 whole entry, the tested form may be a part): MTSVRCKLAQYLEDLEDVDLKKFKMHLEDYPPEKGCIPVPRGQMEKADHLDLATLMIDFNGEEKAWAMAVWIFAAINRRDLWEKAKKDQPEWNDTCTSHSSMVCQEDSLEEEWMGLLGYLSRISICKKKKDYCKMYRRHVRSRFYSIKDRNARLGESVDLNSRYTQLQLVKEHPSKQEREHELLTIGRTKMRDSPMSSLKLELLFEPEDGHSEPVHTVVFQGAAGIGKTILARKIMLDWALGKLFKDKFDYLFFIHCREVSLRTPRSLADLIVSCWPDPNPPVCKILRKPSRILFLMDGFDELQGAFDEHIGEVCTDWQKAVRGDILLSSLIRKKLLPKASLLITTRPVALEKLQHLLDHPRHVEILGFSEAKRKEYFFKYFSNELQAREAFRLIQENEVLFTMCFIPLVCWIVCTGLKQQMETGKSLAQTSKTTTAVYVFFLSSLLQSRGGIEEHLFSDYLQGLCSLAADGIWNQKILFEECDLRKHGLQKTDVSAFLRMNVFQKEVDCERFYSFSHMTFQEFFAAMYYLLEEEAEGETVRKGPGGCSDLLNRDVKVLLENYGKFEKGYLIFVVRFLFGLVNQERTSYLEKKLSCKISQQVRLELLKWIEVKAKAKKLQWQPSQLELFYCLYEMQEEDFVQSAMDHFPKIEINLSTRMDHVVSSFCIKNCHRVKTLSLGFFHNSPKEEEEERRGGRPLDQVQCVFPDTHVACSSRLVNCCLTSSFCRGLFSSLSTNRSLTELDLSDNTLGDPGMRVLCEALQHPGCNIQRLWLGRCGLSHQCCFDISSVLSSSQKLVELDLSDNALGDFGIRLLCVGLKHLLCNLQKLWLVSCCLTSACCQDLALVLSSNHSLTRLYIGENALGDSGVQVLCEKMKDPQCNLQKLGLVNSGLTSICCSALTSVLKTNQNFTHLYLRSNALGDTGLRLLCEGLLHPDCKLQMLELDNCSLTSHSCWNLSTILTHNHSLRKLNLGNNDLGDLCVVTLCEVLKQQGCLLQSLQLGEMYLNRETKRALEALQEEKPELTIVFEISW

Consider `C=CC(=O)Nc1ccc(/C=C/c2cc(OC)cc(OC)c2/C=C/[N+](=O)[O-])cc1`, for which the IC50 in assay [1] was greater than 100 µM. In addition, in assay [2], the inhibition came out at 71.2%.
For `C=CCCCOc1ccc(/C=C/c2cc(OC)cc(OC)c2)cc1`, in assay [1], the IC50 was greater than 100 µM. In addition, the inhibition in assay [3] came to 12.1%; in assay [2], 11.1%.
Take `COc1cc(/C=C/c2ccc(OCC(=O)Nc3ccc(Br)cc3)cc2)c(/C=C/[N+](=O)[O-])c(OC)c1`: the IC50 in assay [1] is greater than 100 µM. Moreover, the inhibition came to 26.2% in assay [3] and 9.56% in assay [2].
As to `COCCOc1ccc(/C=C/c2cc(OC)cc(OC)c2-c2cnn[nH]2)cc1`, the IC50 in assay [1] amounted to 94.5 µM. For the same compound, the inhibition in assay [3] was 26.9%; in assay [2], 11.3%.
In turn, `COc1cc(/C=C/c2ccc(OCc3ccc(C(F)(F)F)cc3)cc2)c(/C=C/[N+](=O)[O-])c(OC)c1` came in with an IC50 in assay [1] greater than 100 µM. Also, the values for the inhibition in assay [3] and in assay [2] were 23.7% and 17.9%, respectively.
As to `COc1cc(NC(=O)COc2ccc(/C=C/c3cc(OC)cc(OC)c3/C=C/[N+](=O)[O-])cc2)cc(OC)c1`, the IC50 in assay [1] is greater than 100 µM. Further, the inhibition in assay [3] is 39.8%; in assay [2], 20.1%.
`COc1cc(/C=C/c2ccc(OCC(=O)NCc3ccc(Cl)cc3)cc2)c(/C=C/[N+](=O)[O-])c(OC)c1` returned an IC50 in assay [1] greater than 100 µM. Further, the inhibition in assay [3] was determined as 49.6%; in assay [2] it was 30.7%.
Take `COc1ccc(CNC(=O)COc2ccc(/C=C/c3cc(OC)cc(OC)c3/C=C/[N+](=O)[O-])cc2)cc1`: the half-maximal inhibitory concentration (IC50) in assay [1] is greater than 100 µM. The inhibition amounted to 23.1% in assay [3] and 11.8% in assay [2].
On to `C=CCCCOc1ccc(/C=C/c2cc(OC)cc(OC)c2/C=C/[N+](=O)[O-])cc1`, for which the IC50 in assay [1] is greater than 100 µM. Also, the inhibition in assay [3] turned out to be 33.5%; in assay [2], 26.8%.
For the compound `CCC(=O)Nc1ccc(/C=C/c2cc(OC)cc(OC)c2/C=C/[N+](=O)[O-])cc1`, the IC50 in assay [1] is greater than 100 µM. In addition, the inhibition in assay [2] worked out at 50.7%.
In turn, `COc1cc(/C=C/c2ccc(OCC(=O)Nc3ccc(F)cc3)cc2)c(/C=C/[N+](=O)[O-])c(OC)c1` yielded an IC50 in assay [1] greater than 100 µM. Besides, the inhibition amounted to 49.6% in assay [3] and 40.7% in assay [2].
As to `COCCCOc1ccc(/C=C/c2cc(OC)cc(OC)c2)cc1`, in assay [1], the IC50 is greater than 100 µM. For the same compound, the results for the inhibition in assay [3] and in assay [2] were 20.2% and 17.1%, respectively.
`COc1cc(/C=C/c2ccc(NC(=O)OC(C)(C)C)cc2)c(/C=C/[N+](=O)[O-])c(OC)c1` returned an IC50 in assay [1] greater than 100 µM. In assay [2], the inhibition came to 24%.
Regarding `COCCOc1ccc(/C=C/c2cc(OC)cc(OC)c2)cc1`, the IC50 in assay [1] is greater than 100 µM. The figures for the inhibition in assay [3] and in assay [2] were 32.3% and 25.7%, respectively.
In turn, `COc1cc(/C=C/c2ccc(OCC(=O)NCc3ccc(C#N)cc3)cc2)c(/C=C/[N+](=O)[O-])c(OC)c1` registered an IC50 in assay [1] greater than 100 µM. Besides, the inhibition stood at 59.9% in assay [3] and 34.4% in assay [2].
`COc1cc(/C=C/c2ccc(OCC(=O)NCc3ccccc3)cc2)cc(OC)c1` had an IC50 in assay [1] greater than 100 µM. The inhibition in assay [3] was 15.4%; in assay [2], 9.65%.
`COc1cc(/C=C/c2ccc(OCC(=O)NCc3ccc(C)cc3)cc2)c(/C=C/[N+](=O)[O-])c(OC)c1` had an IC50 in assay [1] greater than 100 µM. In addition, the figures for the inhibition in assay [3] and in assay [2] were 31.9% and 24.1%, respectively.
As to `COc1cc(/C=C/c2ccc(OCC(=O)Nc3ccc(Cl)cc3)cc2)c(/C=C/[N+](=O)[O-])c(OC)c1`, the 50% inhibitory concentration (IC50) in assay [1] was greater than 100 µM. For the same compound, the inhibition in assay [3] is 40.1%; in assay [2], 22.1%.
Regarding `COc1cc(/C=C/c2ccc(NC(=O)C(C)C)cc2)c(/C=C/[N+](=O)[O-])c(OC)c1`, the IC50 in assay [1] is greater than 100 µM. For the same compound, the inhibition in assay [2] is 69%.
Regarding `COc1cc(/C=C/c2ccc(NC(=O)COC(C)=O)cc2)c(/C=C/[N+](=O)[O-])c(OC)c1`, the IC50 in assay [1] is 58.7 µM. The inhibition in assay [2] was 61%.
In assay [1], `CCCCC(=O)Nc1ccc(/C=C/c2cc(OC)cc(OC)c2/C=C/[N+](=O)[O-])cc1` registered an IC50 greater than 100 µM. Further, in assay [2], the inhibition is 36%.
For `COc1cc(/C=C/c2ccc(NC(=O)C3CCCC3)cc2)c(/C=C/[N+](=O)[O-])c(OC)c1`, in that order: greater than 100 µM and 45.7%.
In assay [1], `COc1cc(/C=C/c2ccc(NC(C)=O)cc2)c(/C=C/[N+](=O)[O-])c(OC)c1` showed an IC50 greater than 100 µM. Moreover, in assay [2], the inhibition came out at 56.2%.
With `C/C=C/C(=O)Nc1ccc(/C=C/c2cc(OC)cc(OC)c2/C=C/[N+](=O)[O-])cc1`, in assay [1], the IC50 is greater than 100 µM. In addition, the inhibition in assay [2] was 60.7%.
`COc1cc(/C=C/c2ccc(OCC(=O)NCCc3ccccc3)cc2)c(/C=C/[N+](=O)[O-])c(OC)c1` registered an IC50 in assay [1] greater than 100 µM. Besides, the inhibition in assay [3] came to 46.2%; in assay [2], 26.2%.
`COc1ccc(NC(=O)COc2ccc(/C=C/c3cc(OC)cc(OC)c3/C=C/[N+](=O)[O-])cc2)cc1` showed an IC50 in assay [1] greater than 100 µM. Moreover, the inhibition was determined as 15.1% in assay [3] and 12.9% in assay [2].
Take `COCC(=O)Nc1ccc(/C=C/c2cc(OC)cc(OC)c2/C=C/[N+](=O)[O-])cc1`: the IC50 in assay [1] was greater than 100 µM. Further, in assay [2], the inhibition is 60%.
`COc1cc(/C=C/c2ccc(OCc3ccc(C(F)(F)F)cc3)cc2)c(-c2cnn[nH]2)c(OC)c1`: the IC50 in assay [1] is greater than 100 µM. In addition, the inhibition in assay [3] turned out to be 3.25%.
`COc1cc(/C=C/c2ccc(OCC(=O)NC3CCCCC3)cc2)c(/C=C/[N+](=O)[O-])c(OC)c1` showed an IC50 in assay [1] greater than 100 µM. Besides, the inhibition came to 41.8% in assay [3] and 25.6% in assay [2].
For `COc1cc(/C=C/c2ccc(OCC(=O)NC3CCN(C(=O)OC(C)(C)C)CC3)cc2)c(/C=C/[N+](=O)[O-])c(OC)c1`, in that order: greater than 100 µM, 42.3% and 33%.
Regarding `C=CCCCOc1ccc(/C=C/c2cc(OC)cc(OC)c2-c2cnn[nH]2)cc1`, in assay [1], the IC50 is greater than 100 µM.
Compound `CCCC(=O)Nc1ccc(/C=C/c2cc(OC)cc(OC)c2/C=C/[N+](=O)[O-])cc1` gave an IC50 in assay [1] greater than 100 µM. Besides, the inhibition in assay [2] was 48.9%.
With `COCCCOc1ccc(/C=C/c2cc(OC)cc(OC)c2/C=C/[N+](=O)[O-])cc1`, in assay [1], the IC50 is greater than 100 µM. Also, the figures for the inhibition in assay [3] and in assay [2] were 53.7% and 43.2%, respectively.
With `CCCC(C)C(=O)Nc1ccc(/C=C/c2cc(OC)cc(OC)c2/C=C/[N+](=O)[O-])cc1` (configuration not stated), in assay [1], the IC50 was greater than 100 µM. Moreover, the inhibition in assay [2] was determined as 41%.
In assay [1], `COCCOc1ccc(/C=C/c2cc(OC)cc(OC)c2/C=C/[N+](=O)[O-])cc1` registered an IC50 greater than 100 µM. The inhibition in assay [3] came to 40.2%; in assay [2], 34.6%.
In turn, `COc1cc(/C=C/c2ccc(NC(=O)CCl)cc2)c(/C=C/[N+](=O)[O-])c(OC)c1` had an IC50 in assay [1] of 42.6 µM. Also, the inhibition in assay [2] worked out at 90%.
As for `COc1cc(/C=C/c2ccc(NC(=O)CC(C)(C)C)cc2)c(/C=C/[N+](=O)[O-])c(OC)c1`, the IC50 in assay [1] is greater than 100 µM. Also, the inhibition in assay [2] worked out at 9.89%.
For the compound `COc1cc(/C=C/c2ccc(OCC(=O)NCc3ccccc3)cc2)c(/C=C/[N+](=O)[O-])c(OC)c1`, the IC50 in assay [1] was greater than 100 µM. Further, the inhibition turned out to be 57.9% in assay [3] and 27.9% in assay [2].

The IC50 is the point on the concentration scale where inhibition reaches its midpoint. By inhibition is commonly meant the percentage by which the read-out fell short of the control.
